Test systems include Proteus mirabilis; Klebsiella pneumoniae; Micrococcus luteus; Salmonella typhimurium; Shigella dysenteriae; Pseudomonas aeruginosa; Escherichia coli; Staphylococcus aureus; Bacillus subtilis; Leuconostoc lactis; Streptococcus uberis; Pasteurella multocida; Bacillus cereus; Enterococcus faecalis; Listeria innocua; Escherichia coli MG1655; Candida albicans.
Common to all, as to test: ≥ marks a high value that may be exact or a test limit, other limits are often not marked, values filed in µg/mL are converted to µM
Experiment [1] has as its system Staphylococcus epidermidis.
Experiment [2] relates to Bacillus subtilis ATCC 6633.
The subject of experiment [3] is Candida albicans ATCC 2002.
Experiment [4] has as its system Staphylococcus aureus ATCC 2592.
The subject of experiment [5] is Escherichia coli ATCC 25922.
Experiment [6] deals with Staphylococcus epidermidis ATCC 12228.
Experiment [7] has as its system Candida parapsilosis ATCC 22019.
The subject of experiment [8] is Staphylococcus aureus ATCC 25923.
The subject of experiment [9] is Pseudomonas aeruginosa PAO1.

Values after ≈ are worked out from the molar mass of the structure shown.

The term MIC denotes the least concentration at which growth counts as inhibited. A low value points to greater potency.

Take `CC[C@H](C)[C@@H]1NC(=O)[C@H](C)NC(=O)[C@@H](NC(=O)[C@H](CCCCN)NC(=O)[C@@H](NC(=O)[C@H](CO)NC(=O)[C@@H]2CCCN2C(=O)[C@H](CC(C)C)NC(=O)[C@@H](NC(=O)[C@H](CCCCN)NC(=O)[C@H](CO)NC(=O)[C@H](C)NC(=O)[C@@H](NC(=O)[C@H](CCCCN)NC(=O)[C@H](Cc2ccccc2)NC(=O)[C@H](CC(C)C)NC(=O)[C@H](C)NC(=O)CNC(=O)[C@H](CC(C)C)NC(=O)[C@@H](N)Cc2ccccc2)C(C)C)C(C)C)C(C)C)CSSC[C@@H](C(=O)O)NC(=O)[C@H](CCCCN)NC(=O)[C@H](CCCCN)NC(=O)[C@H]([C@@H](C)O)NC1=O` [FLGALFKVASKVLPSVKCAITKKC]: the minimal inhibitory concentration (MIC) in the experiment on Proteus mirabilis is at least 78.4 µM; against Klebsiella pneumoniae, 9.8 µM (≈ 25 µg/mL); with Micrococcus luteus, 2.47 µM (≈ 6.3 µg/mL); in the experiment on Salmonella typhimurium, at least 39.2 µM; against Shigella dysenteriae it was 19.6 µM (≈ 50 µg/mL); in experiment [1] it was 4.9 µM (≈ 12.5 µg/mL). For the same compound, the minimal inhibitory concentration (MIC) worked out at 78.4 µM (≈ 200 µg/mL) against Pseudomonas aeruginosa, 4.9 µM (≈ 12.5 µg/mL) with Escherichia coli, 1.21 µM (≈ 3.1 µg/mL) with Staphylococcus aureus and 2.47 µM (≈ 6.3 µg/mL) against Bacillus subtilis.
As to `CC[C@H](C)[C@H](NC(=O)[C@H](CCCCN)NC(=O)[C@@H]1CCCN1C(=O)[C@H](CC(C)C)NC(=O)[C@H](Cc1ccccc1)NC(=O)[C@H](CC(C)C)NC(=O)[C@@H]1CCCN1C(=O)[C@H](CC(C)C)NC(=O)[C@@H](N)Cc1ccccc1)C(=O)N[C@H](C(=O)N[C@H]1CSSC[C@@H](C(=O)O)NC(=O)[C@H](CCCCN)NC(=O)[C@H](CCCCN)NC(=O)[C@H]([C@@H](C)O)NC(=O)[C@H]([C@@H](C)CC)NC(=O)[C@H](C(C)C)NC1=O)[C@@H](C)CC` [FLPLFLPKIICVITKKC], the MIC turned out to be 4.75 µM (≈ 9.37 µg/mL) in [2], 9.49 µM (≈ 18.7 µg/mL) in [3], 2.38 µM (≈ 4.7 µg/mL) in experiment [4] and 17.7 µM (≈ 35 µg/mL) against Shigella dysenteriae.
With `CC(C)C[C@H](NC(=O)[C@@H](NC(=O)[C@H](CCCCN)NC(=O)[C@H](CO)NC(=O)[C@H](C)NC(=O)[C@@H](NC(=O)[C@H](CCCCN)NC(=O)[C@H](Cc1ccccc1)NC(=O)[C@H](CC(C)C)NC(=O)[C@H](C)NC(=O)CN)C(C)C)C(C)C)C(=O)O` [GALFKVASKVL], the MIC against Proteus mirabilis was at least 177 µM; against Klebsiella pneumoniae, above 177 µM; against Micrococcus luteus, at least 177 µM; against Salmonella typhimurium, at least 177 µM; in the experiment with Shigella dysenteriae it was at least 177 µM; in [1], at least 177 µM. Moreover, the MIC is above 177 µM in the experiment with Pseudomonas aeruginosa, 177 µM (≈ 200 µg/mL) with Escherichia coli, 177 µM (≈ 200 µg/mL) against Staphylococcus aureus and at least 177 µM in the experiment on Bacillus subtilis.
Take `CC[C@H](C)[C@H](NC(=O)[C@@H](NC(=O)CNC(=O)[C@H](C)NC(=O)[C@@H](NC(=O)[C@H](CCCCN)NC(=O)[C@H](CCCCN)NC(=O)[C@H](CC(C)C)NC(=O)[C@H](Cc1ccccc1)NC(=O)[C@H](CC(=O)O)NC(=O)[C@@H](NC(=O)[C@H](Cc1ccccc1)NC(=O)CN)C(C)C)C(C)C)[C@@H](C)O)C(=O)N[C@@H](C)C(=O)N[C@@H](CC(N)=O)C(=O)N[C@H](C(=O)N[C@H](C(=O)N[C@H](C(N)=O)[C@@H](C)O)C(C)C)C(C)C` [GFVDFLKKVAGTIANVVT]: the minimal inhibitory concentration (MIC) against Leuconostoc lactis is at least 53.2 µM; in the experiment on Streptococcus uberis it was 13.3 µM (≈ 25 µg/mL); in the experiment with Micrococcus luteus it was at least 53.2 µM; in the experiment with Pasteurella multocida it was at least 53.2 µM; against Bacillus cereus, at least 53.2 µM; in experiment [1] it was 26.6 µM (≈ 50 µg/mL). Further, the MIC in the experiment with Enterococcus faecalis is at least 53.2 µM; with Listeria innocua it was at least 53.2 µM; against Escherichia coli it was above 53.2 µM; against Staphylococcus aureus, 53.2 µM (≈ 99.9 µg/mL).
Consider `CC[C@H](C)[C@H](NC(=O)CNC(=O)[C@H](CO)NC(=O)[C@@H](NC(=O)[C@@H](NC(=O)CNC(=O)[C@H](CCCCN)NC(=O)[C@H](C)NC(=O)[C@H](CC(C)C)NC(=O)[C@H](CO)NC(=O)[C@H](CCC(=O)O)NC(=O)[C@H](CC(C)C)NC(=O)[C@H](CO)NC(=O)[C@H](CCC(=O)O)NC(=O)[C@H](CC(C)C)NC(=O)[C@H](CCCCN)NC(=O)[C@H](CCC(=O)O)NC(=O)[C@H](CCCCN)NC(=O)[C@@H](NC(=O)[C@@H](NC(=O)[C@H](CCC(N)=O)NC(=O)[C@H](CC(C)C)NC(=O)[C@H](CC(C)C)NC(=O)CN)[C@@H](C)O)[C@@H](C)CC)[C@@H](C)CC)C(C)C)C(=O)N[C@@H](CCC(N)=O)C(=O)N[C@@H](C)C(N)=O` [GLLQTIKEKLESLESLAKGIVSGIQA], for which the minimal inhibitory concentration (MIC) in the experiment with Leuconostoc lactis is at least 36.7 µM; against Streptococcus uberis it was 9.17 µM (≈ 25 µg/mL); in the experiment on Micrococcus luteus, at least 36.7 µM; in the experiment with Pasteurella multocida, at least 36.7 µM; against Bacillus cereus, at least 36.7 µM; in [1] it was at least 36.7 µM. Besides, the minimum inhibitory concentration (MIC) with Enterococcus faecalis was at least 36.7 µM; in the experiment on Listeria innocua, at least 36.7 µM; against Escherichia coli, above 36.7 µM; with Staphylococcus aureus, above 36.7 µM.
As for `CC[C@H](C)[C@H](NC(=O)[C@@H](NC(=O)[C@@H]1CCCN1C(=O)[C@@H](NC(=O)[C@@H](NC(=O)[C@H](Cc1cnc[nH]1)NC(=O)[C@@H]1CCCN1C(=O)[C@H](CC(C)C)NC(=O)[C@@H](NC(=O)[C@H](Cc1cnc[nH]1)NC(=O)[C@H](CCCCN)NC(=O)[C@H](C)NC(=O)[C@@H](NC(=O)[C@H](CO)NC(=O)[C@H](CO)NC(=O)[C@H](CC(C)C)NC(=O)[C@H](CO)NC(=O)[C@H](CO)NC(=O)[C@H](CC(C)C)NC(=O)[C@H](CC(C)C)NC(=O)CN)C(C)C)C(C)C)C(C)C)C(C)C)C(C)C)C(=O)N[C@@H](C)C(=O)N[C@@H](CCC(=O)O)C(=O)N[C@@H](Cc1cnc[nH]1)C(=O)N[C@@H](CC(C)C)C(N)=O` [GLLSSLSSVAKHVLPHVVPVIAEHL], the MIC was 4.61 µM (≈ 12 µg/mL) with Leuconostoc lactis; at least 38.4 µM against Streptococcus uberis; 0.154 µM (≈ 0.4 µg/mL) with Micrococcus luteus; 9.6 µM (≈ 25 µg/mL) against Pasteurella multocida; 19.2 µM (≈ 50 µg/mL) with Bacillus cereus; 9.6 µM (≈ 25 µg/mL) in [1]. Further, the results for the minimum inhibitory concentration (MIC) in the experiment with Listeria innocua, against Escherichia coli and with Staphylococcus aureus were at least 38.4 µM, 19.2 µM (≈ 50 µg/mL) and 38.4 µM (≈ 100 µg/mL), respectively.
As for `CC[C@H](C)[C@H](N)C(=O)N[C@H](C(=O)N1CCC[C@H]1C(=O)N[C@@H](Cc1ccccc1)C(=O)N[C@@H](CC(C)C)C(=O)N[C@@H](CC(C)C)C(=O)NCC(=O)N[C@@H](CCSC)C(=O)N[C@H](C(=O)N1CCC[C@H]1C(=O)N[C@@H](CCCCN)C(=O)N[C@@H](CC(C)C)C(=O)N[C@H](C(=O)N[C@H]1CSSC[C@@H](C(=O)O)NC(=O)[C@H](CCCCN)NC(=O)[C@H](CCCCN)NC(=O)[C@H]([C@@H](C)O)NC(=O)[C@H]([C@@H](C)CC)NC(=O)[C@H](CC(C)C)NC1=O)C(C)C)C(C)C)C(C)C` [IVPFLLGMVPKLVCLITKKC], the MIC in experiment [5] amounted to 64 µM (≈ 142 µg/mL); in [6] it was 4 µM (≈ 8.86 µg/mL); in experiment [7] it was 16 µM (≈ 35.4 µg/mL).
On to `CC[C@H](C)[C@H](NC(=O)[C@@H](NC(=O)[C@H](C)NC(=O)[C@H](C)NC(=O)[C@@H](NC(=O)[C@H](CCCCN)NC(=O)[C@H](CCCCN)NC(=O)[C@@H](NC(=O)[C@@H](NC(=O)[C@H](C)NC(=O)[C@H](Cc1ccccc1)NC(=O)[C@H](CC(C)C)NC(=O)[C@@H](N)CCCCN)C(C)C)[C@@H](C)CC)C(C)C)C(C)C)C(=O)N[C@@H](CCCN=C(N)N)C(=O)N[C@@H](CCCN=C(N)N)C(=O)N[C@@H](CC(C)C)C(N)=O` [KLFAVIKKVAAVIRRL], for which the minimum inhibitory concentration (MIC) with Leuconostoc lactis is 6.57 µM (≈ 12 µg/mL); against Streptococcus uberis it was at least 54.8 µM; in the experiment on Micrococcus luteus it was at least 54.8 µM; against Pasteurella multocida, at least 54.8 µM; with Bacillus cereus, at least 54.8 µM; in experiment [1], at least 54.8 µM. For the same compound, the minimum inhibitory concentration (MIC) was 27.4 µM (≈ 50 µg/mL) in the experiment on Listeria innocua, above 54.8 µM against Escherichia coli and above 54.8 µM in the experiment on Staphylococcus aureus.
For `CSCC[C@H](NC(=O)[C@@H](NC(=O)[C@@H](N)CCCCN)C(C)C)C(=O)N[C@@H](CCCN=C(N)N)C(=O)N[C@@H](CCCCN)C(=O)N[C@H](C(=O)N[C@@H](CC(C)C)C(=O)NCC(=O)N[C@@H](Cc1ccc(O)cc1)C(=O)N[C@@H](CC(C)C)C(=O)N[C@@H](CCCN=C(N)N)C(=O)N[C@@H](CC(N)=O)C(=O)N[C@H](C(=O)N[C@@H](Cc1ccc(O)cc1)C(=O)N[C@@H](CCCCN)C(N)=O)C(C)C)C(C)C` [KVMRKVLGYLRNVYK], the MIC stood at 2 µM (≈ 3.73 µg/mL) in the experiment with Escherichia coli MG1655, 32 µM (≈ 59.7 µg/mL) with Candida albicans, 128 µM (≈ 239 µg/mL) in [8] and 32 µM (≈ 59.7 µg/mL) in [9].
